Measurements reported in article PMC6010027, “Iodine-mediated one-pot intramolecular decarboxylation domino reaction for accessing functionalised 2-(1,3,4-oxadiazol-2-yl)anilines with carbonic anhydrase inhibitory action” (Journal of Enzyme Inhibition and Medicinal Chemistry, 2018).

Key:
Test in all cases: stopped-flow CO2 hydrase assay
Assay type in all cases: biochemical
[1] = target: T1, hCA II (Homo sapiens, UniProt P00918)
T1 construct: gene CA2; recombinant; cytosolic isoform
Text: stopped-flow CO2 hydrase assay on hCA II

[2] = target: T2, hCA IX (Homo sapiens, UniProt Q16790)
T2 construct: gene CA9; recombinant; transmembrane isoform
Text: stopped-flow CO2 hydrase assay on hCA IX

[3] = target: T3, hCA I (Homo sapiens, UniProt P00915)
T3 construct: gene CA1; recombinant; cytosolic isoform
Text: stopped-flow CO2 hydrase assay on hCA I

[4] = target: T4, hCA IV (Homo sapiens, UniProt P22748)
T4 construct: gene CA4; recombinant; membrane-anchored isoform
Text: stopped-flow CO2 hydrase assay on hCA IV

T4 sequence (P22748 19-284): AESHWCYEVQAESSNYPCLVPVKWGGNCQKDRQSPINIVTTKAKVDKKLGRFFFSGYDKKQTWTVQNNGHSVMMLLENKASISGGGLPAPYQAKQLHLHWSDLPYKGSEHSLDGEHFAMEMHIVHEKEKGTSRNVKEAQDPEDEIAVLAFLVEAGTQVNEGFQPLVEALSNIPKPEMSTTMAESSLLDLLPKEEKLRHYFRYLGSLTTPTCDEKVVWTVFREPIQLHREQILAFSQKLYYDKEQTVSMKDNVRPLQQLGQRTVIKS
T3 sequence (P00915 2-261): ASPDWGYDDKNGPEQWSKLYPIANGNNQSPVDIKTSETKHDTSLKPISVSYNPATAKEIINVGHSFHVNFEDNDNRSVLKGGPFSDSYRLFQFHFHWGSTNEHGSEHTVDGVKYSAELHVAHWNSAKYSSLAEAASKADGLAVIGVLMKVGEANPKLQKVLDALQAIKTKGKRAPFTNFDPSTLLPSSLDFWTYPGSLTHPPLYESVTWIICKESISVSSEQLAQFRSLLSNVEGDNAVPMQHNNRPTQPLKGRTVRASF

| Ki [1] [nM] | Ki [2] [nM] | Ki [3] [nM] | Ki [4] [nM] | Structure (SMILES) |
| --- | --- | --- | --- | --- |
| 34.1 | 1890 | 222 | 7340 | Nc1ccccc1-c1nnc(-c2ccc(S(N)(=O)=O)cc2)o1 [8a, 4-(5-(2-Aminophenyl)-1,3,4-oxadiazol-2-yl)benzenesulfonamide] |
| 51.5 | 1600 | 270 | 5610 | Cc1ccc(N)c(-c2nnc(-c3ccc(S(N)(=O)=O)cc3)o2)c1 [8b, 4-(5-(2-Amino-5-methylphenyl)-1,3,4-oxadiazol-2-yl)benzenesulfonamide] |
| 16.4 | 282 | 321 | 5920 | COc1ccc(N)c(-c2nnc(-c3ccc(S(N)(=O)=O)cc3)o2)c1 [8c, 4-(5-(2-Amino-5-methoxyphenyl)-1,3,4-oxadiazol-2-yl)benzenesulfonamide] |
| 43.7 | 1600 | 736 | 6330 | Nc1ccc(F)cc1-c1nnc(-c2ccc(S(N)(=O)=O)cc2)o1 [8d, 4-(5-(2-Amino-5-fluorophenyl)-1,3,4-oxadiazol-2-yl)benzenesulfonamide] |
| 221 | 2370 | 3500 | 8240 | Nc1ccc(Cl)cc1-c1nnc(-c2ccc(S(N)(=O)=O)cc2)o1 [8e, 4-(5-(2-Amino-5-chlorophenyl)-1,3,4-oxadiazol-2-yl)benzenesulfonamide] |
| 93.2 | 2450 | 710 | 2170 | Nc1ccc(OC(F)(F)F)cc1-c1nnc(-c2ccc(S(N)(=O)=O)cc2)o1 [8f, 4-(5-(2-Amino-5-(trifluoromethoxy)phenyl)-1,3,4-oxadiazol-2-yl)benzenesulfonamide] |
| 6.4 | 2270 | 81.4 | 2020 | Nc1c(F)cccc1-c1nnc(-c2ccc(S(N)(=O)=O)cc2)o1 [8g, 4-(5-(2-Amino-3-fluorophenyl)-1,3,4-oxadiazol-2-yl)benzenesulfonamide] |
| 17.6 | 2030 | 89.1 | 7590 | Cc1cc(C)c(N)c(-c2nnc(-c3ccc(S(N)(=O)=O)cc3)o2)c1 [8h, 4-(5-(2-Amino-3,5-dimethylphenyl)-1,3,4-oxadiazol-2-yl)benzenesulfonamide] |
| 46.4 | 2740 | 813 | 6780 | Nc1c(Cl)cc(Cl)cc1-c1nnc(-c2ccc(S(N)(=O)=O)cc2)o1 [8i, 4-(5-(2-Amino-3,5-dichlorophenyl)-1,3,4-oxadiazol-2-yl)benzenesulfonamide] |
| 46.9 | 2920 | 3310 | 526 | Nc1ccccc1-c1nnc(-c2cccc(S(N)(=O)=O)c2)o1 [8j, 3-(5-(2-Aminophenyl)-1,3,4-oxadiazol-2-yl)benzenesulfonamide] |
| 64.6 | 2960 | 5830 | 437 | Cc1ccc(N)c(-c2nnc(-c3cccc(S(N)(=O)=O)c3)o2)c1 [8k, 3-(5-(2-Amino-5-methylphenyl)-1,3,4-oxadiazol-2-yl)benzenesulfonamide] |
| 516 | 2720 | 3510 | 588 | COc1ccc(N)c(-c2nnc(-c3cccc(S(N)(=O)=O)c3)o2)c1 [8l, 3-(5-(2-Amino-5-methoxyphenyl)-1,3,4-oxadiazol-2-yl)benzenesulfonamide] |
| 307 | 2570 | 747 | 548 | Nc1ccc(F)cc1-c1nnc(-c2cccc(S(N)(=O)=O)c2)o1 [8m, 3-(5-(2-Amino-5-fluorophenyl)-1,3,4-oxadiazol-2-yl)benzenesulfonamide] |
| 480 | 255 | 344 | 9430 | Nc1ccc(OC(F)(F)F)cc1-c1nnc(-c2cccc(S(N)(=O)=O)c2)o1 [8n, 3-(5-(2-Amino-5-(trifluoromethoxy)phenyl)-1,3,4-oxadiazol-2-yl)benzenesulfonamide] |
| 86.3 | 140 | 731 | 522 | Nc1c(F)cccc1-c1nnc(-c2cccc(S(N)(=O)=O)c2)o1 [8o, 3-(5-(2-Amino-3-fluorophenyl)-1,3,4-ovxadiazol-2-yl)benzenesulfonamide] |
